According to PubChem BioAssay AID1259411 (Chemical Carcinogenesis Research Information System (CCRIS), 2018):
Calls of active or inactive are those of the source. How the calls were made is not given here.

Test system: rodent carcinogenicity bioassays, tumor incidence
Assay: CCRIS carcinogenicity studies
Outline: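 Archive of carcinogenicity, mutagenicity, tumor promotion and tumor inhibition results drawn from journals, NCI reports and other sources, expert-reviewed; covers 1985-2011 and is no longer updated.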

Measured: carcinogen call

CCN(N=O)C(N)=O
active: Species: HAMSTER, Strain/Sex: SYRIAN/FEMALE, Route: GAVAGE, Dose: 0, 12 MG/ML ((0.2 ML OF A SOLUTION IN ETHYL ACETATE/CORN OIL (1:2)) 1/WK FOR 20 WK (STUDY DURATION: LIFE SPAN), Tumor Site: Type of Lesion: SPLEEN: HEMANGIOSARCOMA, FORESTOMACH: SQUAMOUS CELL CARCINOMA OR PAPILLOMA active; positive | Species: HAMSTER, Strain/Sex: SYRIAN/MALE, Route: GAVAGE, Dose: 0, 12 MG/ML ((0.2 ML OF A SOLUTION IN ETHYL ACETATE/CORN OIL (1:2)) 1/WK FOR 20 WK (STUDY DURATION: 20 WK), Tumor Site: Type of Lesion: SPLEEN: HEMANGIOSARCOMA, FORESTOMACH: SQUAMOUS CELL CARCINOMA OR PAPILLOMA active; positive | Species: HAMSTER, Strain/Sex: SYRIAN/MALE, Route: INTRAPERITONEAL, Dose: 60, 274 MG/KG IN SODIUM CHLORIDE/SODIUM CITRATE ONCE, Tumor Site: Type of Lesion: FORESTOMACH: SQUAMOUS CELL PAPILLOMA active; positive | Species: MOUSE, Route: INTRAPERITONEAL, Tumor Site: Type of Lesion: LIVER, KIDNEY, OVARIES, LUNG, HARDERIAN GLAND, LYMPHATIC SYSTEM, STOMACH, Tumor Site: Type of Lesion: LIVER, KIDNEY, OVARIES, LUNG, HARDERIAN GLAND, LYMPHATIC SYSTEM, STOMACH active; positive | Species: MOUSE, Route: SUBCUTANEOUS, Tumor Site: Type of Lesion: LIVER, LUNG, LYMPHATIC SYSTEM, Tumor Site: Type of Lesion: LIVER, LUNG, LYMPHATIC SYSTEM active; positive | Species: RAT, Route: INTRAPERITONEAL, Tumor Site: Type of Lesion: LYMPHATIC SYSTEM: LYMPHOMA, HEMATOPOIETIC SYSTEM (LEUKEMIA) active; positive | Species: RAT, Route: INTRAVENOUS, Tumor Site: Type of Lesion: BRAIN, NERVOUS SYSTEM (PERIPHERAL), HEMATOPOIETIC SYSTEM (LEUKEMIA), UTERUS, VAGINA, Tumor Site: Type of Lesion: BRAIN, NERVOUS SYSTEM (PERIPHERAL), HEMATOPOIETIC SYSTEM (LEUKEMIA), UTERUS, VAGINA active; positive | Species: RAT, Route: ORAL, Tumor Site: Type of Lesion: BRAIN, NERVOUS SYSTEM (PERIPHERAL), HEMATOPOIETIC SYSTEM (LEUKEMIA), Tumor Site: Type of Lesion: BRAIN, NERVOUS SYSTEM (PERIPHERAL), HEMATOPOIETIC SYSTEM (LEUKEMIA) active; positive | Species: RAT, Route: PRE-NATAL EXPOSURE, Tumor Site: Type of Lesion: NERVOUS SYSTEM active; positive | Species: RAT, Route: SUBCUTANEOUS, Tumor Site: Type of Lesion: BRAIN, NERVOUS SYSTEM (PERIPHERAL) active; positive | Species: RAT, Strain/Sex: F344/FEMALE, Route: GAVAGE, Dose: 0, 6, 12 MG/ML (TOTAL DOSE 0; 0.4; 0.8 MMOL) IN 2 ML ETHYL ACETATE AND CORN OIL (1:2) 2/WK FOR 20 WK (STUDY DURATION: LI, Dose: 0, 6, 12 MG/ML (TOTAL DOSE 0; 0.4; 0.8 MMOL) IN 2 ML ETHYL ACETATE AND CORN OIL (1:2) 2/WK FOR 20 WK (STUDY DURATION: LI, Tumor Site: Type of Lesion: FORESTOMACH: SQUAMOUS CELL CARCINOMA, LUNG: TUMOR, MAMMARY GLAND: TUMOR, Tumor Site: Type of Lesion: FORESTOMACH: SQUAMOUS CELL CARCINOMA, LUNG: TUMOR, MAMMARY GLAND: TUMOR active; positive | Species: RAT, Strain/Sex: F344/FEMALE, Route: GAVAGE, Dose: 0, 6, 12 MG/ML IN 0.2 ML ETHYL ACETATE AND CORN OIL 2/WK FOR 20 WK (STUDY DURATION: LIFESPAN), Dose: 0, 6, 12 MG/ML IN 0.2 ML ETHYL ACETATE AND CORN OIL 2/WK FOR 20 WK (STUDY DURATION: LIFESPAN), Tumor Site: Type of Lesion: FORESTOMACH: TUMOR, LUNG: TUMOR, MAMMARY GLAND: TUMOR, UTERUS: TUMOR, ZYMBAL GLAND: TUMOR, Tumor Site: Type of Lesion: FORESTOMACH: TUMOR, LUNG: TUMOR, MAMMARY GLAND: TUMOR, UTERUS: TUMOR, ZYMBAL GLAND: TUMOR active; positive | Species: RAT, Strain/Sex: F344/FEMALE, Route: INTRAVESICULAR, Dose: 0, 1.2 MG 2/WK FOR 20 WK (STUDY DURATION: LIFETIME), Tumor Site: Type of Lesion: BLADDER: TUMOR active; positive | Species: RAT, Strain/Sex: F344/FEMALE, Route: INTRAVESICULAR, Dose: 0, 2.4 MG 2/WK FOR 14 WK (STUDY DURATION: LIFETIME), Tumor Site: Type of Lesion: BLADDER: TUMOR active; positive | Species: RAT, Strain/Sex: F344/FEMALE, Route: ORAL, Dose: 0, 0.3, 1, 3, 10 PPM IN DRINKING WATER FOR 104 WK (STUDY DURATION: 111 WK), Dose: 0, 0.3, 1, 3, 10 PPM IN DRINKING WATER FOR 104 WK (STUDY DURATION: 111 WK), Tumor Site: Type of Lesion: BRAIN: GLIOMA, UTERUS: ENDOMETRIAL STROMAL POLYP, MAMMARY GLAND: ADENOCARCINOMA, HEMATOPOIETIC SYSTEM: MONONUCLEAR CELL, Tumor Site: Type of Lesion: BRAIN: GLIOMA, UTERUS: ENDOMETRIAL STROMAL POLYP, MAMMARY GLAND: ADENOCARCINOMA, HEMATOPOIETIC SYSTEM: MONONUCLEAR CELL active; positive
